ChEMBL document CHEMBL4699399, “Discovery of isoxazolyl-based inhibitors of Plasmodium falciparum cGMP-dependent protein kinase” (RSC Med Chem, 2020)

Columns and labels:
[1] = Inhibition of recombinant Plasmodium falciparum PKG using FAM-PKAtide as substrate preincubated for 15 mins followed by substrate addition and measured after 1 hr by IMAP fluorescence polarization assay
Plasmodium falciparum = assay: Inhibition of recombinant Plasmodium falciparum PKG using FAM-PKAtide as substrate at 10 uM preincubated for 15 mins followed by substrate addition and measured after 1 hr by IMAP fluorescence polarization assay relative to control; conditions: time 75.0 min
[2] = Inhibition of human PKG measured up to 10 uM

SMILES	IC50 [1] [µM]	inhibition (Plasmodium falciparum) [%]	inhibition (INH) [2]
CCN(CC)Cc1onc(-c2ccccc2F)c1-c1ccnc(N[C@@H]2CCN(C(=O)c3cnoc3)C2)n1	0.9		
CCN(CC)Cc1onc(-c2ccc(F)cc2)c1-c1ccnc(N[C@@H]2CCN(C(=O)c3cnoc3)C2)n1	0.66		
CCOC(=O)c1onc(-c2ccccc2)c1-c1ccnc(N[C@@H]2CCN(C(=O)c3cnoc3)C2)n1		23	
O=C(c1cnoc1)N1CC[C@@H](Nc2nccc(-c3c(-c4ccccc4)noc3CN3CCOCC3)n2)C1	1		
CCN(CC)Cc1onc(-c2cccc(Cl)c2)c1-c1ccnc(N[C@@H]2CCN(C(=O)c3c[nH]cn3)C2)n1	0.047		
CCN(CC)Cc1onc(-c2cccc(Cl)c2)c1-c1ccnc(N[C@@H]2CCN(Cc3cnn(C)c3)C2)n1		5	
CCN(CC)Cc1onc(-c2cccc(Cl)c2)c1-c1ccnc(N2CC(C(=O)c3ccsn3)C2)n1	2.6		
CCN(CC)Cc1onc(-c2cccc(Cl)c2)c1-c1ccnc(N[C@@H]2CCN(C(=O)c3ccn(C)n3)C2)n1	0.01		
O=C(c1cnoc1)N1CC[C@@H](Nc2nccc(-c3c(-c4ccccc4)noc3CO)n2)C1	1		
O=C(c1cnoc1)N1CC[C@H](Nc2nccc(-c3c(-c4ccccc4)noc3CO)n2)C1		60	
CCN(CC)Cc1onc(-c2cccc(Cl)c2)c1-c1ccnc(N[C@@H]2CCN(C(=O)c3cnn(C)c3)C2)n1	0.038		
Cc1onc(-c2ccc(Cl)cc2)c1-c1ccnc(N[C@@H]2CCN(C(=O)c3cnoc3)C2)n1	2.8		
Cc1onc(-c2cccc(Cl)c2)c1-c1ccnc(N[C@@H]2CCN(C(=O)c3cnoc3)C2)n1	0.21		Not Active
CCN(CC)Cc1onc(-c2cccc(Cl)c2)c1-c1ccnc(N[C@@H]2CCN(C(=O)c3ccsn3)C2)n1	0.015		
CCN(CC)Cc1onc(-c2cccc(F)c2)c1-c1ccnc(N[C@@H]2CCN(C(=O)c3cnoc3)C2)n1	0.36		
Cc1onc(-c2ccccc2)c1-c1ccnc(N[C@@H]2CCN(C(=O)c3cccnc3)C2)n1	1		

SMILES	IC50 [1] [µM]	inhibition (Plasmodium falciparum) [%]	inhibition (INH) [2]
CCN(CC)Cc1onc(-c2cccc(Cl)c2)c1-c1ccnc(N[C@@H]2CCN(Cc3ccn(C)n3)C2)n1		5	
CCN(CC)Cc1onc(-c2cccc(Cl)c2)c1-c1ccnc(N[C@@H]2CCN(C(=O)c3ccon3)C2)n1	0.025		
CCN(CC)Cc1onc(-c2cccc(Cl)c2)c1-c1ccnc(N[C@@H]2CCN(C(=O)c3cnsc3)C2)n1	0.074		
CCN(CC)Cc1onc(-c2cccc(Cl)c2)c1-c1ccnc(N2CCC(C(=O)c3ccsn3)CC2)n1		46	
CCN(CC)Cc1onc(-c2cccc(Cl)c2)c1-c1ccnc(N2CCCC(C(=O)c3ccsn3)C2)n1 (racemic)		75	
Cc1onc(-c2ccccc2)c1-c1ccnc(N[C@@H]2CCN(C(=O)c3cnoc3)C2)n1	0.75		
CCN(CC)Cc1onc(-c2cccc(Cl)c2)c1-c1ccnc(N2CCCC2CC(=O)c2ccsn2)n1 (racemic)		60	
CCN(CC)Cc1onc(-c2cccc(Cl)c2)c1-c1ccnc(N[C@@H]2CCN(C(=O)c3nc[nH]n3)C2)n1	0.62		
Cc1onc(-c2ccccc2Cl)c1-c1ccnc(N[C@@H]2CCN(C(=O)c3cnoc3)C2)n1	2.1		
O=C(c1cnoc1)N1CC[C@@H](Nc2nccc(-c3c(-c4ccccc4)noc3CN3CCCC3)n2)C1	1.4		
CCN(CC)Cc1onc(-c2cccc(Cl)c2)c1-c1ccnc(N[C@@H]2CCN(C(=O)c3cc[nH]n3)C2)n1	0.12		
CCN(CC)Cc1onc(-c2cccc(Cl)c2)c1-c1ccnc(N[C@@H]2CCN(C(=O)c3cn[nH]c3)C2)n1	0.097		
CCN(CC)Cc1onc(-c2ccccc2)c1-c1ccnc(N[C@@H]2CCN(C(=O)c3cnoc3)C2)n1	0.85		Not Active
CCN(CC)Cc1onc(-c2cccc(Cl)c2)c1-c1ccnc(N[C@@H]2CCN(S(=O)(=O)c3cnn(C)c3)C2)n1		40	
Cc1onc(-c2ccccc2)c1-c1ccnc(N[C@@H]2CCN(C(=O)c3cnccn3)C2)n1	2		
CCN(CC)Cc1onc(-c2cccc(Cl)c2)c1-c1ccnc(N[C@@H]2CCN(C(=O)c3cnoc3)C2)n1	0.013		
